This is an account of results in paper PMC2192064 (The Journal of Experimental Medicine, 1995).

Where no end group is shown, it is not given here.

In assay [1] the target is T1, purified I-Au class II molecules (Mus musculus, UniProt P06344+P14438).
T1 sequence (P14438 1-227): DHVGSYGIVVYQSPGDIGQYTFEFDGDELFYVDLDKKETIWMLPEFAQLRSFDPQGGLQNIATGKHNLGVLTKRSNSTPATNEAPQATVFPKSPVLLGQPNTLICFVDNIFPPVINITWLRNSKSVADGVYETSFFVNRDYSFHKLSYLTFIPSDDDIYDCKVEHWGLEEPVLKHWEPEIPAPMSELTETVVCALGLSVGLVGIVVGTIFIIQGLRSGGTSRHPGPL
T1 sequence (P06344 28-263): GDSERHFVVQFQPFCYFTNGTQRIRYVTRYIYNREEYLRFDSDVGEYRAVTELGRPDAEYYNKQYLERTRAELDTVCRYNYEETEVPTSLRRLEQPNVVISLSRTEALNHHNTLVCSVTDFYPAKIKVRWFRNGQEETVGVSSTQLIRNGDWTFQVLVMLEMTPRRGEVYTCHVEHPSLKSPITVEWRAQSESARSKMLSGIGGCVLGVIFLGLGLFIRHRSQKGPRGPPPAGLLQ
As to the kind of experiment: Class II-peptide-binding inhibition assay, I-Au.

A further assay concerns BWF1 mice. Description: Pathogenic potential: immunization of young BWF1 mice with peptides. The assay is classed as in vivo, mouse. The following applies: p34 or p84 immunization vs PBS/CFA/alum; p <0.05.
The subject of assay [2] is T cell-enriched splenic cells from 12-14-wk-old female BWF1 mice. Description: Proliferation of unprimed splenic T cells in response to peptides. Format: cell-based, mouse. The following applies: result in words.
Assay [3] deals with I-Ad class II molecule (mouse). Description: radioligand binding.

What is called IC50 is the concentration that gives 50% inhibition. Low values mean inhibition by little substance, high ones a need for much substance. Compound `C[C@H](NC(=O)[C@H](C)NC(=O)[C@H](Cc1c[nH]cn1)NC(=O)[C@H](C)NC(=O)[C@H](C)NC(=O)[C@H](Cc1c[nH]cn1)NC(=O)[C@H](C)NC(=O)[C@H](C)NC(=O)[C@H](Cc1c[nH]cn1)NC(=O)[C@H](C)NC(=O)[C@H](C)NC(=O)[C@H](Cc1c[nH]cn1)NC(=O)[C@H](C)NC(=O)[C@H](C)NC(=O)[C@H](Cc1c[nH]cn1)NC(=O)[C@H](C)NC(=O)[C@@H](N)Cc1ccc(O)cc1)C(=O)O` [RO IV] registered a 50% inhibitory concentration (IC50) in assay [1] of 8 nM.

As for MNWVKQSHGKSL [p34], in the assay on BWF1 mice, the plasma creatinine levels entry was “increase in plasma creatinine levels”. Moreover, in assay [2], the “proliferative responses in naive BWF1 T cells” value is “elicit proliferative responses”.

The compound “OVA 323-336 (from UniProt P01012 324-337) (peptide)” had an IC50 in assay [3] of 110 nM. This lies in the sub-micromolar range.
